From the kinase profiling compilation of Christmann-Franck et al. (2016)

Experiments:
Experiment in all cases: split-luciferase competition binding
AURKC (human) = AURKC (human) (UniProt Q9UQB9); conditions: compound 10.0 µM
PKN1 (human) = PKN1 (human) (UniProt Q16512); conditions: compound 10.0 µM
RPS6KA5 KD1 (human) = RPS6KA5 KD1 (human) (UniProt O75582); conditions: compound 10.0 µM
PRKCI (human) = PRKCI (human) (UniProt P41743); conditions: compound 10.0 µM
PRKX (human) = PRKX (human) (UniProt P51817); conditions: compound 10.0 µM
AKT2 (human) = AKT2 (human) (UniProt P31751); conditions: compound 10.0 µM
PRKACA (mouse) = conditions: compound 10.0 µM; accession and sequence are those of the human protein
SGK3 (human) = SGK3 (human) (UniProt Q96BR1); conditions: compound 10.0 µM
PRKCH (human) = PRKCH (human) (UniProt P24723); conditions: compound 10.0 µM
RPS6KA1 KD1 (human) = RPS6KA1 KD1 (human) (UniProt Q15418); conditions: compound 10.0 µM
RPS6KA2 KD1 (human) = RPS6KA2 KD1 (human) (UniProt Q15349); conditions: compound 10.0 µM
Sequence of RPS6KA2 KD1 (human) (Q15349 whole entry, looked up): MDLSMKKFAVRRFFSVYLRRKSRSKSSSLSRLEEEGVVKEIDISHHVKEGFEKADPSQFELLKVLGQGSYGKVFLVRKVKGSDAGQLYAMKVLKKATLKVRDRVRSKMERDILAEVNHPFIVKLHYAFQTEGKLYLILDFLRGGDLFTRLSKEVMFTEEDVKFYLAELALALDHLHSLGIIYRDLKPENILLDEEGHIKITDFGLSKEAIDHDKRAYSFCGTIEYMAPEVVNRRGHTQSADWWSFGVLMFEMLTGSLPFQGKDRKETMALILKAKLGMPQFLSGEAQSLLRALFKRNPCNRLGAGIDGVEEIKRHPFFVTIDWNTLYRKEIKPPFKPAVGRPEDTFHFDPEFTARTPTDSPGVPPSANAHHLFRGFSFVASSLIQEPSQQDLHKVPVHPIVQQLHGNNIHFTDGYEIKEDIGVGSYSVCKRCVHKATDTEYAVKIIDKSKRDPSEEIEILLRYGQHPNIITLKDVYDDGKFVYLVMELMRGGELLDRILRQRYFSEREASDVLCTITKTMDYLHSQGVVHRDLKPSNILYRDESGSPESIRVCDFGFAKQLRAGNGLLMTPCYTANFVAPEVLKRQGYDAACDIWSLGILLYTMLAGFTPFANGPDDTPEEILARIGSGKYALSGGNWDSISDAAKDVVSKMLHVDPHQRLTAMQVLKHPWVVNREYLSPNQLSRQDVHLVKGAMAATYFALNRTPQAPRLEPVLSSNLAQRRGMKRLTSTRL

SGK2 (human) = SGK2 (human) (UniProt Q9HBY8); conditions: compound 10.0 µM
RPS6KA4 KD1 (human) = RPS6KA4 KD1 (human) (UniProt O75676); conditions: compound 10.0 µM
PRKCQ (human) = PRKCQ (human) (UniProt Q04759); conditions: compound 10.0 µM
Sequence of PRKCQ (human) (Q04759 whole entry, looked up): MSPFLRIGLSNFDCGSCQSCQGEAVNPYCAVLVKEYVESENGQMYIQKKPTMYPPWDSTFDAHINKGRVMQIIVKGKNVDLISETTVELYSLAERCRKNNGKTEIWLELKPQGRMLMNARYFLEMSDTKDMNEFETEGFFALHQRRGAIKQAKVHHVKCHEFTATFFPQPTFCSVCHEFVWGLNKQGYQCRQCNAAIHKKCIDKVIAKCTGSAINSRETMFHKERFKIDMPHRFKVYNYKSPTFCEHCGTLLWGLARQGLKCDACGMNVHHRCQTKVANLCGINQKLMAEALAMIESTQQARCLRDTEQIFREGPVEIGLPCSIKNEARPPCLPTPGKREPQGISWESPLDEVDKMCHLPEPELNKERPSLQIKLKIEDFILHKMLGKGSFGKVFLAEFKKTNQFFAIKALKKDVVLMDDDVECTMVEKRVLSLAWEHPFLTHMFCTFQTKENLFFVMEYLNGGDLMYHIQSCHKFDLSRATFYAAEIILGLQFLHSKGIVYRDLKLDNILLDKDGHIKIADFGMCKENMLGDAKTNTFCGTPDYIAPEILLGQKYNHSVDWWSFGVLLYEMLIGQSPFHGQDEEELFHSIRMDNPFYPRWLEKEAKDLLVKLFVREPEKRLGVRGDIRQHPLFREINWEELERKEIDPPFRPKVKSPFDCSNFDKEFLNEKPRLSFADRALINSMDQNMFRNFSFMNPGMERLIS

AURKB (human) = AURKB (human) (UniProt Q96GD4); conditions: compound 10.0 µM
PRKCE (human) = PRKCE (human) (UniProt Q02156); conditions: compound 10.0 µM
Sequence of PRKCE (human) (Q02156 whole entry, looked up): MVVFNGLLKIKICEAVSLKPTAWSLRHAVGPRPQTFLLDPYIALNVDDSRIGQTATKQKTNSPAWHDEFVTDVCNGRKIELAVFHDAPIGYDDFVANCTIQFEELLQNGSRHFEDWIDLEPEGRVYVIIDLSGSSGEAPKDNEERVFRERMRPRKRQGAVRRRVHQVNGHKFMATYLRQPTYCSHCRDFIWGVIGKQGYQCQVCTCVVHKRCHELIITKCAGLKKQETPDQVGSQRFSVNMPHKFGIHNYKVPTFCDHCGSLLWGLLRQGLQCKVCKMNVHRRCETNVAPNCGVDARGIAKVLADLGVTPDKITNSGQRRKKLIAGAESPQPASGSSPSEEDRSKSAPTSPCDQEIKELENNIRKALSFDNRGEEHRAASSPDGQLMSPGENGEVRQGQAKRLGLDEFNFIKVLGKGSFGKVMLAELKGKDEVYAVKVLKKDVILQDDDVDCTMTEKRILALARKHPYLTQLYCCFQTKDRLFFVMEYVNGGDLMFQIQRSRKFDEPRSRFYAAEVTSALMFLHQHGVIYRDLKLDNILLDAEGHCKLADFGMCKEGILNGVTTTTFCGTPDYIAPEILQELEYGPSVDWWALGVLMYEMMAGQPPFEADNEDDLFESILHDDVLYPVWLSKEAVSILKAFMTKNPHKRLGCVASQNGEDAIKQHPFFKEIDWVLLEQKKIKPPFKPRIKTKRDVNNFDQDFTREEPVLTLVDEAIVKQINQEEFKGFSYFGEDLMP

AURKA (human) = AURKA (human) (UniProt O14965); conditions: compound 10.0 µM
PDPK1 (human) = PDPK1 (human) (UniProt O15530); conditions: compound 10.0 µM
AKT1 (human) = AKT1 (human) (UniProt P31749); conditions: compound 10.0 µM
AKT3 (human) = AKT3 (human) (UniProt Q9Y243); conditions: compound 10.0 µM
Sequence of AKT3 (human) (Q9Y243 whole entry, looked up): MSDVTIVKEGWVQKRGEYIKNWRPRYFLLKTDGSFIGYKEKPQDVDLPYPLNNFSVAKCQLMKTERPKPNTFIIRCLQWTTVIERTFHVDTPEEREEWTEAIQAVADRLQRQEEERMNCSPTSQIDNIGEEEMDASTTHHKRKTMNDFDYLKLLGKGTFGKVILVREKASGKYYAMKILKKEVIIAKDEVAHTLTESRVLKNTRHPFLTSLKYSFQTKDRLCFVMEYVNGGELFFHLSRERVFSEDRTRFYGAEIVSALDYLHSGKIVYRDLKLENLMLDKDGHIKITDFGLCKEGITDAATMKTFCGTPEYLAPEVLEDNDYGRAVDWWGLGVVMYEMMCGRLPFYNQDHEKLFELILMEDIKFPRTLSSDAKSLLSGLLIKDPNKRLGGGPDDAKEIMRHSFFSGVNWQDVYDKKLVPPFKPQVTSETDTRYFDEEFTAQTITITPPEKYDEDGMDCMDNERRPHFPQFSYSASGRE

RPS6KA6 KD1 (human) = RPS6KA6 KD1 (human) (UniProt Q9UK32); conditions: compound 10.0 µM
STK32B (human) = STK32B (human) (UniProt Q9NY57); conditions: compound 10.0 µM
DMPK (human) = DMPK (human) (UniProt Q09013); conditions: compound 10.0 µM
PRKCG (human) = PRKCG (human) (UniProt P05129); conditions: compound 10.0 µM
PRKCD (human) = PRKCD (human) (UniProt Q05655); conditions: compound 10.0 µM
Sequence of PRKCD (human) (Q05655 whole entry, looked up): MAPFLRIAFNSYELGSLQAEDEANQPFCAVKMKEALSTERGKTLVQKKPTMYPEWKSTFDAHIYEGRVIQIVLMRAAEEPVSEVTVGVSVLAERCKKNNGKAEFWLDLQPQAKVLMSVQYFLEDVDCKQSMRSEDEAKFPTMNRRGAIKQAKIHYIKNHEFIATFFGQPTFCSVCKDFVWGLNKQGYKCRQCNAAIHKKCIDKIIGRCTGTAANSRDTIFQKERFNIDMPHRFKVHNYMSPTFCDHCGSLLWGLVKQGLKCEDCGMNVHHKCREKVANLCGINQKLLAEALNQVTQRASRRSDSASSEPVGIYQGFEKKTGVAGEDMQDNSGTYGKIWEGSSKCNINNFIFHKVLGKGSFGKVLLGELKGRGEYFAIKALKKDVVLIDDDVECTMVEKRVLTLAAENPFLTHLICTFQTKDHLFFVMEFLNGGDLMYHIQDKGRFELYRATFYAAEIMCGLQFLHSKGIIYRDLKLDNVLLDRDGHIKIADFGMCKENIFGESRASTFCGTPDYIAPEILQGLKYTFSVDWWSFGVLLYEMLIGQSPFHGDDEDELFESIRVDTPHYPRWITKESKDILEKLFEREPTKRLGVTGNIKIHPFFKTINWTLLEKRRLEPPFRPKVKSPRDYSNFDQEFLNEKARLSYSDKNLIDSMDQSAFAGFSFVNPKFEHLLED

RPS6KA3 KD1 (human) = RPS6KA3 KD1 (human) (UniProt P51812); conditions: compound 10.0 µM
Sequence of RPS6KA3 KD1 (human) (P51812 whole entry, looked up): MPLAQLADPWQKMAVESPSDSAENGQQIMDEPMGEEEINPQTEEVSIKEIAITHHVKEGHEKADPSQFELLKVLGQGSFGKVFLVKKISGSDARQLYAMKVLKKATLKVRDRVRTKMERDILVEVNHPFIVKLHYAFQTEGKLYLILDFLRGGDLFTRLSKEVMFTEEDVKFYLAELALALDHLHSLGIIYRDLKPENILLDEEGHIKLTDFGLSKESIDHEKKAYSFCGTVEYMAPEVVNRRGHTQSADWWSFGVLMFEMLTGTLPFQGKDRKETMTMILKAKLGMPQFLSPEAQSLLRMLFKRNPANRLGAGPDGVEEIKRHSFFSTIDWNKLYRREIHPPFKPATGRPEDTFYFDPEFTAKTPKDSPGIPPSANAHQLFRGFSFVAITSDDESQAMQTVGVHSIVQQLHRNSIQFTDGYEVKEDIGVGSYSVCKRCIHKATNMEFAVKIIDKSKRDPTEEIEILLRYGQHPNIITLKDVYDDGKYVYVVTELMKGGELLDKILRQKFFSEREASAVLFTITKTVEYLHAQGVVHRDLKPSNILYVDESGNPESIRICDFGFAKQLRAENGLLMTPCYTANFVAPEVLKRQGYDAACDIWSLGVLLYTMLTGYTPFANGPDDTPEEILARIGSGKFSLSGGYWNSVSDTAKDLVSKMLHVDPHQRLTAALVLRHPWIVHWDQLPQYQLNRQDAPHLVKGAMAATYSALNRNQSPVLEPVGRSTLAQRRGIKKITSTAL

PRKACB (human) = PRKACB (human) (UniProt P22694); conditions: compound 10.0 µM

Sequence of RPS6KA5 KD1 (human) (O75582 whole entry, looked up): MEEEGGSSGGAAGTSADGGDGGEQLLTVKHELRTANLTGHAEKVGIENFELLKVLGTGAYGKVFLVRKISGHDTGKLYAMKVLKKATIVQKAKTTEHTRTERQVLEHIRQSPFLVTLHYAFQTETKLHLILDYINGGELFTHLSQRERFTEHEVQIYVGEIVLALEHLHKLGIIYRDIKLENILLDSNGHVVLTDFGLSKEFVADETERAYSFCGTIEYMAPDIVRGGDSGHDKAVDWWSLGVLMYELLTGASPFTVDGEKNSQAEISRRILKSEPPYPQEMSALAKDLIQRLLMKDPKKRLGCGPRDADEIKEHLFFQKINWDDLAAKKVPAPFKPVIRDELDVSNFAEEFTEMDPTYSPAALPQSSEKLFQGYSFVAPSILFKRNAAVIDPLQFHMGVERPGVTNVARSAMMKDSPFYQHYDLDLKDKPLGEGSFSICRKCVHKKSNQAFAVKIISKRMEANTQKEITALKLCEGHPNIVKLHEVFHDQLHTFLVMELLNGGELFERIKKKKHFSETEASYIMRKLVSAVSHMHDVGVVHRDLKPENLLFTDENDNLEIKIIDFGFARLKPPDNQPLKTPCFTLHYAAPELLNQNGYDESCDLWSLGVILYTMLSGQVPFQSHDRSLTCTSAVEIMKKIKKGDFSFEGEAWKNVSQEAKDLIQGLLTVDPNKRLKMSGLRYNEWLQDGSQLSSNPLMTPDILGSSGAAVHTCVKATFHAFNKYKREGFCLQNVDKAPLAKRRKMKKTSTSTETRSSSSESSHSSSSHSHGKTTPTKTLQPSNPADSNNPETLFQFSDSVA

Row | SMILES | inhibition (AURKC (human)) | inhibition (PKN1 (human)) | inhibition (RPS6KA5 KD1 (human)) | inhibition (PRKCI (human)) | inhibition (PRKX (human)) | inhibition (AKT2 (human)) | inhibition (PRKACA (mouse)) | inhibition (SGK3 (human)) | inhibition (PRKCH (human)) | inhibition (RPS6KA1 KD1 (human)) | inhibition (RPS6KA2 KD1 (human)) | inhibition (SGK2 (human)) | inhibition (RPS6KA4 KD1 (human)) | inhibition (PRKCQ (human)) | inhibition (AURKB (human)) | inhibition (PRKCE (human)) | inhibition (AURKA (human)) | inhibition (PDPK1 (human)) | inhibition (AKT1 (human)) | inhibition (AKT3 (human)) | other results
1 | Oc1ccc(-c2nc(-c3ccc(F)cc3)c(-c3ccncc3)[nH]2)cc1 | 21% | 0% | 0% | 0% | 13% | 0% | 11% | 0% | 0% | 0% | 0% | 0% | 0% | 0% | 0% | 0% | 0% | 0% | 5% | 0% | inhibition (RPS6KA6 KD1 (human)): 0%; inhibition (STK32B (human)): 11%; inhibition (DMPK (human)): 0%; inhibition (PRKCG (human)): 0%; inhibition (PRKCD (human)): 7%; inhibition (RPS6KA3 KD1 (human)): 0%; inhibition (PRKACB (human)): 0%
2 | Nc1ccc(-c2cccc3c(=O)cc(N4CCOCC4)oc23)cc1 | 14% | 0% | 2% | 0% | 2% | 0% | 0% | 0% | 1% | 0% | 0% | 0% | 3% | 0% | 7% | 4% | 2% | 0% | 2% | 0% | inhibition (RPS6KA6 KD1 (human)): 0%; inhibition (STK32B (human)): 0%; inhibition (DMPK (human)): 4%; inhibition (PRKCG (human)): 0%; inhibition (PRKCD (human)): 0%; inhibition (RPS6KA3 KD1 (human)): 0%; inhibition (PRKACB (human)): 0%
3 | O=C1NC(=O)c2c1c1c3ccccc3n3c1c1c2c2ccccc2n1C1CCC3O1 | 45% | 10% | 73% | 28% | 79% | 56% | 65% | 85% | 78% | 81% | 81% | 87% | 77% | 82% | 60% | 59% | 12% | 29% | 78% | 45% | inhibition (RPS6KA6 KD1 (human)): 80%; inhibition (STK32B (human)): 12%; inhibition (DMPK (human)): 37%; inhibition (PRKCG (human)): 45%; inhibition (PRKCD (human)): 58%; inhibition (RPS6KA3 KD1 (human)): 77%; inhibition (PRKACB (human)): 71%
4 | N#C/C(=C(/N)Sc1ccc(N)cc1)c1ccccc1C(F)(F)F | 0% | 6% | 0% | 0% | 11% | 0% | 2% | 4% | 0% | 0% | 0% | 0% | 0% | 0% | 1% | 0% | 0% | 0% | 0% | 0% | inhibition (RPS6KA6 KD1 (human)): 0%; inhibition (STK32B (human)): 0%; inhibition (DMPK (human)): 0%; inhibition (PRKCG (human)): 0%; inhibition (PRKCD (human)): 1%; inhibition (RPS6KA3 KD1 (human)): 0%; inhibition (PRKACB (human)): 0%
5 | Nc1ncnc2[nH]nc(Nc3ccc(F)cc3)c12 | 16% | 1% | 0% | 0% | 24% | 0% | 9% | 23% | 13% | 0% | 0% | 9% | 0% | 17% | 14% | 6% | 0% | 0% | 3% | 0% | inhibition (RPS6KA6 KD1 (human)): 0%; inhibition (STK32B (human)): 42%; inhibition (DMPK (human)): 2%; inhibition (PRKCG (human)): 0%; inhibition (PRKCD (human)): 0%; inhibition (RPS6KA3 KD1 (human)): 0%; inhibition (PRKACB (human)): 1%
6 | CC(C)[C@H](CO)Nc1nc(Nc2cc(N)cc(Cl)c2)c2ncn(C(C)C)c2n1 | 0% | 0% | 18% | 0% | 6% | 0% | 13% | 5% | 10% | 83% | 79% | 2% | 39% | 29% | 0% | 6% | 0% | 0% | 0% | 0% | inhibition (RPS6KA6 KD1 (human)): 55%; inhibition (STK32B (human)): 20%; inhibition (DMPK (human)): 7%; inhibition (PRKCG (human)): 0%; inhibition (PRKCD (human)): 6%; inhibition (RPS6KA3 KD1 (human)): 77%; inhibition (PRKACB (human)): 1%
7 | O=c1cc(N2CCOCC2)oc2c1ccc1ccccc12 | 14% | 0% | 1% | 0% | 0% | 0% | 0% | 0% | 0% | 0% | 0% | 0% | 0% | 0% | 7% | 6% | 0% | 0% | 0% | 0% | inhibition (RPS6KA6 KD1 (human)): 0%; inhibition (STK32B (human)): 0%; inhibition (DMPK (human)): 0%; inhibition (PRKCG (human)): 3%; inhibition (PRKCD (human)): 0%; inhibition (RPS6KA3 KD1 (human)): 0%; inhibition (PRKACB (human)): 0%
8 | c1ccc(-c2n[nH]cc2-c2ccnc3ccccc23)nc1 | 6% | 7% | 0% | 0% | 5% | 0% | 1% | 0% | 0% | 0% | 0% | 0% | 0% | 1% | 25% | 5% | 0% | 0% | 0% | 0% | inhibition (RPS6KA6 KD1 (human)): 0%; inhibition (STK32B (human)): 8%; inhibition (DMPK (human)): 3%; inhibition (PRKCG (human)): 4%; inhibition (PRKCD (human)): 0%; inhibition (RPS6KA3 KD1 (human)): 0%; inhibition (PRKACB (human)): 0%
9 | CC1=C(O)C(=O)[C@@H]2OC2C1=O (stereo partly drawn) | 0% | 0% | 2% | 0% | 0% | 0% | 0% | 1% | 7% | 5% | 0% | 0% | 0% | 0% | 0% | 0% | 0% | 2% | 0% | 0% | inhibition (RPS6KA6 KD1 (human)): 5%; inhibition (STK32B (human)): 36%; inhibition (DMPK (human)): 0%; inhibition (PRKCG (human)): 0%; inhibition (PRKCD (human)): 0%; inhibition (RPS6KA3 KD1 (human)): 0%; inhibition (PRKACB (human)): 0%
